From patent publication US6737383B1, “Herbicidal oxadiazolidines” (priority 1999, dated 2004)

Columns and labels:
pigweed = experiment: Test B pre/postemergence pigweed; format: in vivo, Amaranthus retroflexus
Procedure, shortened: (§1)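 Test chemicals in a non-phytotoxic solvent mixture with surfactant were sprayed preemergence onto planted seeds and postemergence onto plants 2 to 18 cm tall (1- to 4-leaf stage). After twelve to sixteen days in a greenhouse, injury was visually rated against untreated controls from 0 (no effect) to 10 (complete control).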

bedstraw = experiment: Test B pre/postemergence bedstraw; format: in vivo, Galium aparine; conditions: Preemergence
Procedure, shortened: as §1

blackgrass = experiment: Test B pre/postemergence blackgrass; format: in vivo, Alopecurus myosuroides
Procedure, shortened: as §1

bamyardgrass = experiment: Test B flood test barnyardgrass; format: in vivo, Echinochloa crus-galli
Procedure, shortened: (§2)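 Flood test on plants grown to the 2-leaf stage; treated plants kept in greenhouse twelve to sixteen days, then visually rated against controls on a 0 (no effect) to 10 (complete control) scale.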

wild oat = experiment: Test B pre/postemergence wild oat; format: in vivo, Avena fatua
Procedure, shortened: as §1

morningglory = experiment: Test B pre/postemergence morningglory; format: in vivo, Ipomoea hederacea
Procedure, shortened: as §1

giant foxtail = experiment: Test B pre/postemergence giant foxtail; format: in vivo, Setaria faberii
Procedure, shortened: as §1

surinam grass = experiment: Test B pre/postemergence surinam grass; format: in vivo, Brachiaria decumbens
Procedure, shortened: as §1

sugar beet = experiment: Test B pre/postemergence sugar beet; format: in vivo, Beta vulgaris
Procedure, shortened: as §1

smallflower flatsedge = experiment: Test B flood test smallflower flatsedge; format: in vivo, Cyperus difformis
Procedure, shortened: as §2

rice = experiment: Test B flood test rice; format: in vivo, Oryza sativa
Procedure, shortened: as §2

corn = experiment: Test B pre/postemergence corn; format: in vivo, Zea mays
Procedure, shortened: as §1

purple nutsedge = experiment: Test B pre/postemergence purple nutsedge; format: in vivo, Cyperus rotundus
Procedure, shortened: as §1

rape = experiment: Test B pre/postemergence rape; format: in vivo, Brassica napus
Procedure, shortened: as §1

wheat = experiment: Test B pre/postemergence wheat; format: in vivo, Triticum aestivum
Procedure, shortened: as §1

crabgrass = experiment: Test B pre/postemergence crabgrass; format: in vivo, Digitaria sanguinalis
Procedure, shortened: as §1

[1] = Postemergence, Rate 62 g/ha, scale 0 to 10, 0 is no effect, 10 is complete control
[2] = Postemergence, Rate 125 g/ha, scale of 0 to 10 where 0 is no effect and 10 is complete control
[3] = Preemergence, Rate 62 g/ha, scale of 0 to 10 where 0 is no effect and 10 is complete control
[4] = Preemergence, Rate 125 g/ha, scale of 0 to 10 where 0 is no effect and 10 is complete control
[5] = Preemergence, Rate 250 g/ha, scale 0 to 10 (0 no effect, 10 complete control)
[6] = Preemergence, Rate 500 g/ha, scale of 0 to 10 where 0 is no effect and 10 is complete control
[7] = Rate 500 g/ha, Postemergence, scale 0 to 10, 0 is no effect, 10 is complete control
[8] = Postemergence, Rate 250 g/ha, scale of 0 to 10, 0 is no effect, 10 is complete control
[9] = Rate 62 g/ha, flood test species, Pre-emergence, visual evaluation after twelve to sixteen days
[10] = Rate 125 g/ha, under heading Pre-emergence, flood test species, visual evaluation after twelve to sixteen days
[11] = Rate 250 g/ha, Pre-emergence (flood test species), scale 0 to 10, 0 is no effect, 10 is complete control
[12] = Rate 500 g/ha, Pre-emergence section of Table B, 0 to 10 scale (0 no effect, 10 complete control)

Q: Which results are given for C=C(Cc1ccccc1)Cn1c(=O)on(C(=O)N(c2ccccc2)C(C)C)c1=O [Compound 650]?
A: Plant response rating, Redroot pigweed (pigweed; [1]): 2; Redroot pigweed plant response rating (pigweed; [2]): 6; Redroot pigweed plant response rating (pigweed; [3]): 1; Redroot pigweed plant response rating (pigweed; [4]): 7; Plant response rating, Redroot pigweed (pigweed; [5]): 7; Plant response rating, Redroot pigweed (pigweed; [6]): 9; Redroot pigweed plant response rating (pigweed; [7]): 6; Bedstraw plant response rating (bedstraw; Rate 62 g/ha, scale of 0 to 10 where 0 is no effect and 10 is complete control): 0; Bedstraw plant response rating (bedstraw; Rate 125 g/ha, scale of 0 to 10 where 0 is no effect and 10 is complete control): 0; Plant response rating, Bedstraw (bedstraw; Rate 250 g/ha, scale 0 to 10 (0 no effect, 10 complete control)): 0; Plant response rating, Bedstraw (bedstraw; Rate 500 g/ha, scale of 0 to 10 where 0 is no effect and 10 is complete control): 5; Plant response rating, Blackgrass (blackgrass; [1]): 0; Blackgrass plant response rating (blackgrass; [2]): 0; Blackgrass plant response rating (blackgrass; [8]): 0; Blackgrass plant response rating (blackgrass; [3]): 0; Blackgrass plant response rating (blackgrass; [4]): 0; Plant response rating, Blackgrass (blackgrass; [5]): 0; Plant response rating, Blackgrass (blackgrass; [6]): 3; Blackgrass plant response rating (blackgrass; [7]): 3; Plant response rating, Barnyardgrass (0 to 10 scale, 0 is no effect, 10 is complete control) (bamyardgrass; [9]): 0; Barnyardgrass plant response rating (0 to 10 scale, 0 is no effect, 10 is complete control) (bamyardgrass; [10]): 0; Barnyardgrass plant response rating (bamyardgrass; [11]): 0; Barnyardgrass plant response rating (bamyardgrass; [12]): 0; Plant response rating, Wild oats (wild oat; [1]): 0; Wild oats plant response rating (wild oat; [2]): 0; Wild oats plant response rating (wild oat; [3]): 0; Wild oats plant response rating (wild oat; [4]): 0; Plant response rating, Wild oats (wild oat; [5]): 0; Plant response rating, Wild oats (wild oat; [6]): 0; Wild oats plant response rating (wild oat; [7]): 0; Plant response rating, Morningglory (morningglory; [1]): 4; Morningglory plant response rating (morningglory; [2]): 10; Morningglory plant response rating (morningglory; [8]): 10; Morningglory plant response rating (morningglory; [3]): 0; Morningglory plant response rating (morningglory; [4]): 0; Plant response rating, Morningglory (morningglory; [5]): 1; Plant response rating, Morningglory (morningglory; [6]): 1; Morningglory plant response rating (morningglory; [7]): 10; Plant response rating, Giant foxtail (giant foxtail; [1]): 0; Giant foxtail plant response rating (giant foxtail; [2]): 2; Giant foxtail plant response rating (giant foxtail; [8]): 8; Giant foxtail plant response rating (giant foxtail; [3]): 7; Giant foxtail plant response rating (giant foxtail; [4]): 10; Plant response rating, Giant foxtail (giant foxtail; [5]): 10; Plant response rating, Giant foxtail (giant foxtail; [6]): 10; Giant foxtail plant response rating (giant foxtail; [7]): 8; Plant response rating, B. signalgrass (surinam grass; [1]): 0; Plant response rating, B. signalgrass (surinam grass; [2]): 0; B. signalgrass plant response rating (surinam grass; [8]): 0; B. signalgrass plant response rating (surinam grass; [3]): 0; B. signalgrass plant response rating (surinam grass; [4]): 0; Plant response rating, B. signalgrass (surinam grass; [5]): 0; Plant response rating, B. signalgrass (surinam grass; [6]): 4; B. signalgrass plant response rating (surinam grass; [7]): 2; Plant response rating, Sugarbeets (sugar beet; [1]): 0; Sugarbeets plant response rating (sugar beet; [2]): 0; Sugarbeets plant response rating (sugar beet; [3]): 0; Sugarbeets plant response rating (sugar beet; [4]): 0; Plant response rating, Sugarbeets (sugar beet; [5]): 0; Plant response rating, Sugarbeets (sugar beet; [6]): 4; Sugarbeets plant response rating (sugar beet; [7]): 0; Plant response rating, S. Flatsedge (0 to 10 scale, 0 is no effect, 10 is complete control) (smallflower flatsedge; [9]): 0; S. Flatsedge plant response rating (0 to 10 scale, 0 is no effect, 10 is complete control) (smallflower flatsedge; [10]): 0; S. Flatsedge plant response rating (smallflower flatsedge; [11]): 0; S. Flatsedge plant response rating (smallflower flatsedge; [12]): 0; Plant response rating, Rice (0 to 10 scale, 0 is no effect, 10 is complete control) (rice; [9]): 0; Rice plant response rating (0 to 10 scale, 0 is no effect, 10 is complete control) (rice; [10]): 0; Rice plant response rating (rice; [11]): 0; Rice plant response rating (rice; [12]): 0; Plant response rating, Corn (corn; [1]): 0; Corn plant response rating (corn; [2]): 0; Corn plant response rating (corn; [8]): 2; Corn plant response rating (corn; [3]): 0; Corn plant response rating (corn; [4]): 0; Plant response rating, Corn (corn; [5]): 0; Plant response rating, Corn (corn; [6]): 0; Corn plant response rating (corn; [7]): 4; Plant response rating, Nutsedge (purple nutsedge; [1]): 2; Nutsedge plant response rating (purple nutsedge; [2]): 2; Nutsedge plant response rating (purple nutsedge; [4]): 3; Plant response rating, Nutsedge (purple nutsedge; [5]): 7; Plant response rating, Nutsedge (purple nutsedge; [6]): 5; Nutsedge plant response rating (purple nutsedge; [7]): 4; Plant response rating, Rape (rape; [1]): 0; Rape plant response rating (rape; [2]): 0; Rape plant response rating (rape; [3]): 0; Rape plant response rating (rape; [4]): 0; Plant response rating, Rape (rape; [5]): 0; Plant response rating, Rape (rape; [6]): 2; Rape plant response rating (rape; [7]): 3; Plant response rating, Wheat (wheat; [1]): 0; Wheat plant response rating (wheat; [2]): 0; Wheat plant response rating (wheat; [3]): 0; Wheat plant response rating (wheat; [4]): 0; Plant response rating, Wheat (wheat; [5]): 0; Plant response rating, Wheat (wheat; [6]): 0; Wheat plant response rating (wheat; [7]): 0; Plant response rating, Crabgrass (crabgrass; [1]): 0; Crabgrass plant response rating (crabgrass; [2]): 1; Crabgrass plant response rating (crabgrass; [8]): 7; Crabgrass plant response rating (crabgrass; [3]): 3; Crabgrass plant response rating (crabgrass; [4]): 8; Plant response rating, Crabgrass (crabgrass; [5]): 9; Plant response rating, Crabgrass (crabgrass; [6]): 9; Crabgrass plant response rating (crabgrass; [7]): 9
